Data reported in patent US8022103B2, “Ester prodrugs of prostratin and related phorbol compounds” (Salvia Sciences, Inc., priority 2005, dated 2011).
Values after ≈ are worked out from the molar mass of the structure shown. Like-named read-outs stand apart in the source and are kept apart here.

Tests used:
HIV-1IIIB = experiment: PBMC antiviral assay, HIV-1IIIB; type: cell-based; settings: human PBMCs
Procedure: (§1) Compounds SA-101A and SA-101B were tested for antiviral activity against HIV-1 in peripheral blood mononuclear cells (PBMC) acutely infected with the HIV-1 isolates. PBMCs were derived from normal HIV-1 negative donors, and cultured under conditions which promote cell survival and HIV replication. Fresh human blood was obtained commercially from Biological Specialty Corporation (Colmar, Pa.). The low passage clinical isolates HIV-1Ba-L, HIVIIIB, and SIVmac251 were from the NIAID AIDS Research and Reference Reagent Program. Immediately before use, pre-titered aliquot of the viruses were removed from storage in a freezer (−80° C.) and thawed rapidly to room temperature in a biological safety cabinet. Phytohemagglutinin (PHA-P) was obtained from Sigma (St. Louis, Mo.) and recombinant IL-2 was obtained from R&D Systems Inc. (Minneapolis, Minn.). Antiviral activity was tested from a high-test concentration of 100 μM or 100 μg/ml with nine ½-log serial dilutions of the compound to derive applicable IC50 (concentration inhibition virus replication by 50%), IC90 (concentration inhibition virus replication by 90%), TC50 (concentration decreasing cell viability by 50%) and TI (therapeutic index: TC50/IC50) values.
Preparation of PMBC. Fresh Human PBMCs, Seronegative for HIV and HBV, were isolated from screened donors (Interstate Blood Bank, Inc. Memphis, Tenn.). Cells were pelleted/washed 2-3 times by low speed centrifugation and resuspensded in PBS to remove contaminating platelets. The leukophoresed blood was then diluted 1:1 with Dulbecco's Phosphate Buffered Saline (DPBS) and layered over 14 mL of Lymphocyte Separation Medium (LSM; Cellgro® by Mediatech, Inc.; density 1.078+/−0.002 g/ml; Cat. # 85-072-CL) in a 50 mL centrifuge tube and then centrifuged for 30 minutes at 600×g. […]
(§2) PMBC assay. […] Pooling (mixing) of mononuclear cells from more than one donor is used to minimize the variability observed between individual donors, which results from quantitative and qualitative differences in HIV infection and overall response to the PHA and IL-2 of primary lymphocyte populations. […]

Hepatitis B Virus = experiment: HepG2 2.2.15 antiviral assay (HBV DNA, TaqMan PCR); type: cell-based, Hepatitis B (HBV); settings: HepG2 2.2.15 cells
Procedure: Compounds SA-101A and SA-101B were evaluated for effect on Hepatitis B Virus replications using a cell culture based HBV replication system.
Compound preparation. The compounds were prepared in powder form (˜1 mg) and solubilized in DMSO prior to use. Compound 3TC was used as positive antiviral control.
HepG2 2.2.15 Antiviral Assay. The assay developed is similar to that described ion the literature (Korba et al., 1991, Antiviral Res. 15: 217-228; Korba et al., 1992, Antiviral Res. 19: 55-70) with the exception that viral DNA detection and quantification have been improved and simplified (Buckwold et al., 2004, Antiviral Res. 61(1): 57-62). Briefly, HepG2-2.2.15 cells are plated in 96-well microtiter plates. […] Six days following the initial administration of the test compound, the cell culture supernatant is collected, treated with pronase and DNAse and then used in a real-time quantitative TaqMan PCR assay. The PCR-amplified HBV DNA is detected in real-time by monitoring increases in fluorescence signals that result from the exonucleolytic degradation of a quenched fluorescent probe molecule that hybridizes to the amplified HBV DNA. […] Antiviral activity is calculated from the reduction in HBV DNA levels (IC50). […] The therapeutic index (TI) is calculated as TC50/IC50.

[1] = tested on: HIV-1 isolates Ba-L and IIIB and the SIV isolate mac251; experiment: PBMC-based assay, summary over all three isolates; type: cell-based; settings: read-out: IC50 values against all three isolates
Procedure: as §1, with “Antiviral activity was tested from a high-test concentration of 100 μM or 100 μg/ml with nine ½-log serial dilutions of the compound to derive applicable IC50 (concentration inhibition virus replication by 50%), IC90 (concentration inhibition virus replication by 90%), TC50 (concentration decreasing cell viability by 50%) and TI (therapeutic index: TC50/IC50) values.” left out
as §2

CC(=O)OC12CC(C)C3(O)C(C=C(COC(=O)CCC(=O)O)CC4(O)C(=O)C(C)=CC43)C1C2(C)C (stereo not drawn) [SA-101B, Prostratin Succinate]
IC90 (HIV-1IIIB; 40% Human AB serum): >1.00 µg/mL
EC50 (inhibition of HBV) (Hepatitis B Virus): did not achieve EC50 values

CC(=O)O[C@@]12C[C@@H](C)[C@@]3(O)[C@@H](C=C(CO)C[C@]4(O)C(=O)C(C)=C[C@@H]34)[C@@H]1C2(C)C [SA-101A, 12-deoxyphorbol 13-acetate]
IC50 (HIV-1IIIB; Human immunodeficiency virus 1, PBMC): 0.09 µg/mL (≈ 0.23 µM)
IC90 (HIV-1IIIB; Human immunodeficiency virus 1, PBMC, read-out: IC90): 0.5 µg/mL (≈ 1.28 µM)
EC50 (inhibition of HBV) (Hepatitis B Virus): did not achieve EC50 values
IC50 [1]: 0.05 to 0.39 µg/mL (≈ 0.128 to 0.999 µM)
